“And” between values parts separate entries of the source, which are not always exact repeats. Equal entries are not always repeated.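 Dose response: 5 concentrations. Exposure: 48 h. Format: 96-well plates. Endpoint: linear interpolation; highest concentration if not reached. GI50: concentration for 50% inhibition of growth. TGI marks complete inhibition of growth.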
Columns and labels:
Assay in all cases: inhibition of tumour cell growth, NCI panel, 48 h
UO-31 renal = tested on: UO-31 renal
OVCAR-3 ovarian = tested on: OVCAR-3 ovarian
BT-549 breast = tested on: BT-549 breast
SF-295 CNS = tested on: SF-295 CNS
EKVX NSCLC = tested on: EKVX NSCLC
M14 melanoma = tested on: M14 melanoma
K-562 leukemia = tested on: K-562 leukemia
A549 NSCLC = tested on: A549 NSCLC
SK-OV-3 ovarian = tested on: SK-OV-3 ovarian
NCI/ADR-RES ovarian = tested on: NCI/ADR-RES ovarian

Row | Compound | GI50 (UO-31 renal) [µM] | TGI (UO-31 renal) | GI50 (OVCAR-3 ovarian) [µM] | TGI (OVCAR-3 ovarian) [µM] | GI50 (BT-549 breast) [µM] | TGI (BT-549 breast) [µM] | GI50 (SF-295 CNS) [µM] | TGI (SF-295 CNS) | GI50 (EKVX NSCLC) [µM] | TGI (EKVX NSCLC) [µM] | GI50 (M14 melanoma) [µM] | TGI (M14 melanoma) | GI50 (K-562 leukemia) [µM] | TGI (K-562 leukemia) | GI50 (A549 NSCLC) [µM] | TGI (A549 NSCLC) | GI50 (SK-OV-3 ovarian) [µM] | TGI (SK-OV-3 ovarian) | GI50 (NCI/ADR-RES ovarian) [µM] | TGI (NCI/ADR-RES ovarian) [µM]
1 | CN1CCN(C2=NC(=O)/C(=C\c3ccc(N(C)C)cc3)S2)CC1 | 71 | > 100 µM | > 100 | > 100 | > 100 | > 100 | > 100 | > 100 µM | > 100 | > 100 | 3.79 | > 100 µM | > 100 | > 100 µM | > 100 | > 100 µM | > 100 | > 100 µM | > 100 | > 100
2 | C[C@@H]1C[C@@H]([C@H](O)CC2CC(=O)NC(=O)C2)C(=O)[C@@H](C)C1 | 0.23 | 4.63 µM and 0.675 µM | 0.675 |  | 0.927 | 9.01 | 0.176 | 1.19 µM and 1.69 µM | 0.341 | 4.45 | 0.248 | 2.8 µM and 1.6 µM | 0.165 | 11.9 µM and 2.93 µM | 0.204 | 1.76 µM and 1.73 µM | 0.275 | 5.31 µM and 12.2 µM | 0.358 | 9.16
3 | COc1cc(/C=N/NC(=O)c2cnn3c2NC(c2ccccc2)C3)ccc1OC1CCCC1 (centres undefined) | 1.22 | 6.59 µM | 0.262 | 0.697 | 1.46 | 5.74 | 0.367 | 1.66 µM | 1.51 | 14 | 0.646 | 5.19 µM | 0.348 | > 30.4 µM | 0.731 | 3.86 µM | 1.57 | 8.49 µM | 0.884 | 4.35
4 | COc1cc(C2CC(c3ccc(Nc4nc(NCCO)nc(NCCO)n4)cc3)=NN2c2cc(Cl)cc(Cl)c2)cc(OC)c1OC (centres undefined) | 2.08 | 8.09 µM | 1.62 | 3.13 | 1.67 | 4.54 | 1.16 | 2.87 µM | 2.03 | 6.17 | 1.58 | 3.24 µM | 1.47 | 3.58 µM | 1.38 | 3.22 µM | 11.1 | 23.1 µM | 3.37 | 12.8
5 | C[C@@]1(F)[C@H](O)[C@@H](CO)O[C@H]1n1ccc(=O)[nH]c1=O | > 100 | > 100 µM | > 100 | > 100 | > 100 | > 100 | > 100 | > 100 µM | > 100 | > 100 | > 100 | > 100 µM | > 100 | > 100 µM | > 100 | > 100 µM | > 100 | > 100 µM | > 100 | > 100
6 | COc1ccc(-c2ccc(OC)c(OC)c2OC)cc1 | 4.6 | > 100 µM | 1.41 | 4.49 | 1.57 | > 62.6 | 1.7 | > 100 µM | 4.1 | > 100 | 0.817 | > 77.8 µM | 0.431 | > 100 µM | 5.74 | > 100 µM | 2.63 | 62 µM | 0.529 | 5.38
7 | COc1ccc2[nH]c(C(=O)N3CCN(C(=O)OCc4ccc5c(Cl)cc(Cl)c(O)c5n4)CC3)cc2c1 | 1.01 | 2.17 µM | 0.504 | 1.83 | 1.04 | 2.34 | 3.91 | 13.8 µM | 1.61 | 2.97 | 1.15 | 2.6 µM | 0.543 | 4.41 µM | 1.55 | 3.39 µM | 5.36 | 17.6 µM | 1.83 | 6.37
8 | COc1ccc(-n2c(=S)sc3c(Cl)nc(C)nc32)c(OC)c1 | 3.62 | 15.4 µM | 1.8 | 3.26 | 1.99 | 4.28 | 7.06 | 20.1 µM | 4.55 | 17 | 1.84 | 4.05 µM | 1.19 | 3.79 µM | 4.45 | 15.8 µM | 14.3 | 27.3 µM | 13.2 | 72.9
9 | CCCCCCCC(=O)OCC/C=C/C1OC1C1OC(=O)/C=C\C=C\C(=O)N(C(C)=O)C(=O)/C=C(/C)CCC2OC2C1OC(=O)NC(C)=O (centres undefined) | 1.82 | 10.8 µM | 4.07 | 8.4 | 6.43 | > 25 | 2.16 | 9.9 µM | > 25 | > 25 | 6.83 | > 25 µM | 4.78 | > 25 µM | 21.6 | > 25 µM | > 25 | > 25 µM | > 25 | > 25
10 | COc1c2ccoc2nc2c(OC)c(OCC(O)C(C)(C)O)ccc12 (centres undefined) |  | > 100 µM |  | > 100 |  | > 100 |  | > 100 µM |  | > 100 |  | > 100 µM |  | > 100 µM |  | > 100 µM |  | > 100 µM |  | > 100
11 | CC(C)C[C@@H](N)[C@@H](O)C(=O)N[C@H](C(=O)N[C@H](C(=O)N[C@@H](CC(=O)O)C(=O)O)C(C)C)C(C)C | > 20 | > 20 µM | > 20 | > 20 | > 20 | > 20 | > 20 | > 20 µM | > 20 | > 20 | > 20 | > 20 µM | > 20 | > 20 µM | > 20 | > 20 µM | > 20 | > 20 µM | > 20 | > 20
12 | COc1ccc2c(c1)C(=O)c1c-2c(OCCCN(C)C)nc2cc(Br)ccc12 | 1.36 | 2.88 µM | 3.45 | 13.4 | 13.5 | 28 | 7.3 | 20.7 µM | 2.78 | 13.5 | 14.8 | 29 µM | 6.75 | 23.1 µM | 3.52 | 11.4 µM | 7.28 | 22.9 µM | 2.84 | 16.5

Source: PubChem BioAssay (NCI)
